≈ marks a conversion by molar mass, not a printed value.
Columns and labels:
HSV-1 = assay: HSV Antiviral (ELISA) Assay in Vero cells; type: cell-based, herpes simplex virus type 1; details: HSV-1, Vero cells; for IC50: Human alphaherpesvirus 1, read-out: IC50 (ug/ml) HSV
How it was run: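 Viral replication was quantified by cell-fixed ELISA for HSV glycoprotein D, using a β-galactosidase reporter and fluorogenic umbelliferyl substrate, about 24 h after HSV-1 infection (MOI 0.006) of Vero cells. Compounds, at several concentrations, were added 30 min pre-infection. IC50 was derived from fluorescence relative to the compound-free signal.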

[1] = tested on: HCMV recombinant mutant virus (RV145); assay: microbe, parasite or virus in culture; type: cell-based, human cytomegalovirus; details: for IC50: Human betaherpesvirus 5, read-out: IC50 ug/ml HCMV, HCMV
How it was run: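 Read-out is beta-glucuronidase activity in cell lysates 96 h after infection, measured colorimetrically or fluorometrically. Reporter virus RV145 expresses the enzyme under a viral promoter in human foreskin fibroblasts treated with inhibitor.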

VZV strain Ellen = assay: VZV Antiviral (ELISA) Assay in human foreskin fibroblast cells; type: cell-based, varicella-zoster virus; details: for IC50 / inhibition at 10 µg/mL: Human alphaherpesvirus 3, Fibroblast; for IC50: read-out: IC50 (ug/ml) VZV; for inhibition at 10 µg/mL: read-out: % inhibition 10 ug/ml VZV, 10 ug/ml
How it was run: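 Cell-based VZV (Ellen) spread assay in HFF, 3-day compound exposure in 2% FBS medium. Viral antigen quantified by fluorescent β-galactosidase ELISA; IC50 from inhibition of signal.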

SMILES | IC50 (ug/ml) HSV (HSV-1) [µg/mL] | IC50 ug/ml HCMV [1] [µg/mL] | IC50 (ug/ml) VZV (VZV strain Ellen) [µg/mL] | IC50 (HSV-1) [µg/mL] | IC50 [1] [µg/mL] | IC50 (VZV strain Ellen) [µg/mL] | inhibition at 10 µg/mL (VZV strain Ellen) [%] | % inhibition 10 ug/ml VZV (VZV strain Ellen; 10 ug/ml) [%]
CC(NC(=S)Nc1ccc(NC(=O)c2ccccc2F)cc1)c1cccc(Cl)c1 (centres unmarked) [Example 779] | >10 | 1.2 (≈ 2.8 µM) | >7.5 | – | – | – | – | –
CC(NC(=S)Nc1ccc(NC(=O)c2ccccc2F)cc1)c1cccc(Br)c1 (centres unmarked) [Example 780] | >10 | 1 (≈ 2.12 µM) | 1.2 (≈ 2.54 µM) | – | – | – | – | –
CC(NC(=S)Nc1ccc(NC(=O)c2ccccc2F)cc1)c1ccc(Cl)cc1 (centres unmarked) [Example 781] | >10 | 1.8 (≈ 4.21 µM) | 0.6 (≈ 1.4 µM) | – | – | – | – | –
Cc1ccc(C(C)NC(=S)Nc2ccc(NC(=O)c3ccccc3F)cc2)cc1 (centres unmarked) [Example 782] | >10 | 0.9 (≈ 2.21 µM) | 3 (≈ 7.36 µM) | – | – | – | – | –
CC(NC(=S)Nc1ccc(NC(=O)c2ccccc2F)cc1)c1ccccc1Br (centres unmarked) [Example 783] | >10 | 1.1 (≈ 2.33 µM) | 0.3 (≈ 0.635 µM) | – | – | – | – | –
CC(NC(=S)Nc1ccc(NC(=O)c2ccccc2F)cc1)c1ccccc1Cl (centres unmarked) [Example 784] | >10 | 1.1 (≈ 2.57 µM) | 0.7 (≈ 1.64 µM) | – | – | – | – | –
CC(NC(=S)Nc1ccc(NC(=O)c2ccccc2F)cc1)c1ccccc1C(F)(F)F (centres unmarked) [Example 785] | – | – | – | > 10 | > 2.2 | > 7.5 | – | –
COc1ccccc1C(C)NC(=S)Nc1ccc(NC(=O)c2ccccc2F)cc1 (centres unmarked) [Example 788] | >10 | 1.8 (≈ 4.25 µM) | >7.5 | – | – | – | – | –
COc1cccc(C(C)NC(=S)Nc2ccc(NC(=O)c3ccccc3F)cc2)c1 (centres unmarked) [Example 789] | >10 | >2.2 | 1.5 (≈ 3.54 µM) | – | – | – | – | –
CC(C)C(NC(=S)Nc1ccc(NC(=O)c2ccccc2F)cc1)c1ccc(F)cc1 (centres unmarked) [Example 790] | >10 | 1.5 (≈ 3.41 µM) | 2.5 (≈ 5.69 µM) | – | – | – | – | –
CC(NC(=S)Nc1ccc(NC(=O)c2ccccc2F)cc1)c1ccc(C#N)cc1 (centres unmarked) [Example 792] | – | – | – | > 10 | 5 (≈ 11.9 µM) | > 7.5 | – | –
CC(NC(=S)Nc1ccc(NC(=O)c2ccccc2F)cc1)c1ccc(N(C)C)cc1 (centres unmarked) [Example 793] | 9 (≈ 20.6 µM) | 3.2 (≈ 7.33 µM) | 3.1 (≈ 7.1 µM) | – | – | – | – | –
CC(NC(=S)Nc1ccc(NC(=O)c2ccccc2F)cc1)c1cccc(N(C)C)c1 (centres unmarked) [Example 794] | 7 (≈ 16 µM) | 6.2 (≈ 14.2 µM) | 0.4 (≈ 0.916 µM) | – | – | – | – | –
CC(NC(=S)Nc1ccc(NC(=O)c2ccccc2Br)cc1)c1ccc(F)cc1 (centres unmarked) [Example 795] | 8.6 (≈ 18.2 µM) | 4.1 (≈ 8.68 µM) | >7.5 | – | – | – | – | –
O=C(Nc1ccc(NC(=S)NC(CO)c2ccccc2)cc1)c1ccccc1F (centres unmarked) [Example 797] | – | – | – | > 10 | > 10 | 1.7 (≈ 4.15 µM) | – | –
CC(NC(=S)Nc1ccc(NC(=O)c2ccccc2F)cc1)c1ccc2ccccc2c1 (centres unmarked) [Example 799] | >10 | 1.7 (≈ 3.83 µM) | >7.5 | – | – | – | – | –
CC(NC(=S)Nc1ccc(NC(=O)c2cccc(F)c2)cc1)c1ccc(F)cc1 (centres unmarked) [Example 800] | – | – | – | > 10 | > 10 | > 7.5 | – | –
CC(NC(=S)Nc1ccc(NC(=O)c2ccc(F)cc2)cc1)c1ccc(F)cc1 (centres unmarked) [Example 801] | – | – | – | > 10 | > 10 | > 7.5 | – | –
CCOc1ccc(NC(=S)Nc2ccc(NC(=O)c3ccccc3F)cc2)cc1Cl [Example 806] | >10 | >10 | >7.5 | – | – | – | – | –

SMILES | IC50 (ug/ml) HSV (HSV-1) [µg/mL] | IC50 ug/ml HCMV [1] [µg/mL] | IC50 (ug/ml) VZV (VZV strain Ellen) [µg/mL] | IC50 (HSV-1) [µg/mL] | IC50 [1] [µg/mL] | IC50 (VZV strain Ellen) [µg/mL] | inhibition at 10 µg/mL (VZV strain Ellen) [%] | % inhibition 10 ug/ml VZV (VZV strain Ellen; 10 ug/ml) [%]
CC(C)Oc1ccc(NC(=S)Nc2ccc(NC(=O)c3ccccc3F)cc2)cc1Cl [Example 808] | >10 | >10 | >7.5 | – | – | – | – | –
CCCCOc1ccc(NC(=S)Nc2ccc(NC(=O)c3ccccc3F)cc2)cc1Cl [Example 809] | >10 | >10 | >7.5 | – | – | – | – | –
COc1ccc(NC(=S)Nc2ccc(NC(=O)c3ccccc3F)cc2)cc1Br [Example 811] | 0.8 (≈ 1.69 µM) | 3.1 (≈ 6.54 µM) | >7.5 | – | – | – | – | –
COc1cc(C)c(Cl)cc1NC(=S)Nc1ccc(NC(=O)c2ccccc2F)cc1 [Example 849, N-{4-[3-(5-Chloro-2-methoxy-4-methyl-phenyl)-thioureido]-phenyl}-2-fluoro-benzamide] | – | – | – | > 10 | > 10 | > 10 | 38 | –
CN1CCC(N(C)c2ccc(NC(=S)Nc3ccc(NC(=O)c4ccccc4F)cc3)cc2Cl)CC1 [Example 855, N-[4-(3-{3-Chloro-4-[methyl-(1-methyl-piperidin-4-yl)-amino]-phenyl}-thioureido)-phenyl]-2-fluoro-benzamide] | – | – | – | 2.5 (≈ 4.75 µM) | 0.7 (≈ 1.33 µM) | > 10 | 52 | –
O=C(Nc1ccc(NC(=S)Nc2ccccc2)cc1)c1ccccc1F [Example 859, 2-Fluoro-N-[4-(3-phenyl-thioureido)-phenyl]-benzamide] | – | – | – | > 10 | > 10 | > 10 | 20 | –
COc1ccccc1C(=O)Nc1ccc(NC(=S)Nc2cc(Cl)c(OC)c(Cl)c2)cc1 [Example 873] | >10 | 0.3 (≈ 0.63 µM) | >10 | – | – | – | – | 23
O=C(Nc1ccc(NC(=S)Nc2ccc(Cl)c(Cl)c2)cc1)c1ccccc1F [Example 912, N-{4-[3-(3,4-Dichloro-phenyl)-thioureido]-phenyl}-2-fluoro-benzamide] | – | – | – | 8 (≈ 18.4 µM) | > 10 | > 10 | 21 | –
O=C(Nc1ccc(NC(=S)Nc2ccc(F)c(Cl)c2)cc1)c1ccccc1F [Example 922, N-{4-[3-(3-Chloro-4-fluoro-phenyl)-thioureido]-phenyl}-2-fluoro-benzamide] | – | – | – | 1 (≈ 2.39 µM) | > 10 | > 10 | 40 | –
O=C(Nc1ccc(NC(=S)Nc2cc(Cl)ccc2Cl)cc1)c1ccccc1F [Example 931, N-{4-[3-(2,5-Dichloro-phenyl)-thioureido]-phenyl}-2-fluoro-benzamide] | – | – | – | 4 (≈ 9.21 µM) | > 10 | > 10 | 51 | –
O=C(Nc1ccc(NC(=S)Nc2cc(Cl)cc(Cl)c2)cc1)c1ccccc1F [Example 934, N-{4-[3-(3,5-Dichloro-phenyl)-thioureido]-phenyl}-2-fluoro-benzamide] | – | – | – | > 10 | > 10 | > 10 | 18 | –
O=C(Nc1ccc(NC(=S)Nc2cc(Cl)c(Cl)c(Cl)c2)cc1)c1ccccc1F [Example 937, 2-Fluoro-N-{4-[3-(3,4,5-trichloro-phenyl)-thioureido]-phenyl}-benzamide] | – | – | – | 0.7 (≈ 1.49 µM) | 2 (≈ 4.27 µM) | > 10 | 25 | –
COC(=O)c1cccc(NC(=S)Nc2ccc(NC(=O)c3ccccc3F)cc2)c1 [Example 950, 3-{3-[4-(2-Fluoro-benzoylamino)-phenyl]-thioureido}-benzoic acid methyl ester] | – | – | – | 8 (≈ 18.9 µM) | > 10 | > 10 | – | –
O=C(Nc1ccc(NC(=S)Nc2cccc([N+](=O)[O-])c2)cc1)c1ccccc1F [Example 959, 2-Fluoro-N-{4-[3-(3-nitro-phenyl)-thioureido]-phenyl}-benzamide] | – | – | – | 0.7 (≈ 1.71 µM) | > 10 | > 10 | 33 | –
O=C(Nc1ccc(NC(=S)Nc2cccc(F)c2)cc1)c1ccccc1F [Example 962, 2-Fluoro-N-{4-[3-(3-fluoro-phenyl)-thioureido]-phenyl}-benzamide] | – | – | – | > 10 | > 10 | > 10 | 10 | –
O=C(O)c1cccc(NC(=S)Nc2ccc(NC(=O)c3ccccc3F)cc2)c1 [Example 963, 3-{3-[4-(2-Fluoro-benzoylamino)-phenyl]-thioureido}-benzoic acid] | – | – | – | > 10 | > 10 | > 10 | 30 | –
O=C(O)c1cccc(NC(=S)Nc2ccc(NC(=O)c3ccco3)cc2)c1 [Example 964, 3-(3-{4-[(Furan-2-carbonyl)-amino]-phenyl}-thioureido)-benzoic acid] | – | – | – | > 10 | > 10 | > 10 | 0 | –
CC(=O)c1cccc(NC(=S)Nc2ccc(NC(=O)c3ccccc3F)cc2)c1 [Example 965, N-{4-[3-(3-Acetyl-phenyl)-thioureido]-phenyl}-2-fluoro-benzamide] | – | – | – | 5 (≈ 12.3 µM) | > 10 | > 10 | 12 | –
CC(NC(=S)Nc1ccc(NC(=O)c2ccccc2C(F)(F)F)cc1)c1cc2ccccc2o1 (centres unmarked) [Example 974, N-{4-[3-(1-Benzofuran-2-yl-ethyl)-thioureido]-phenyl}-2-trifluoromethyl-benzamide] | – | – | – | > 10 | > 10 | > 7.5 | – | –

Reference: US6462055B2, “Alpha-methylbenzyl-containing thiourea inhibitors of herpes viruses containing a phenylenediamine group” (Wyeth, priority 1998, dated 2002)
